In patent publication US20250360143A1, “COMPOSITIONS AND METHODS FOR PHA[…] OF STROKE AND […] REPERFUSION INJURY” (priority 2022, published 2025):
“Also recorded” adds a separate entry of the source. Counter-ions that a name gives are not always drawn. Like-named read-outs stand apart in the source and are kept apart here.

Assays:
[1] = test system: C57B/6 mice, transient focal cerebral ischemia (MCAo); details: 1 mg/kg/day for 3 days from onset of acute stroke; previously shown; cited from earlier work
[2] = test system: C57B/6 mice, transient focal cerebral ischemia (MCAo); details: mouse, in vivo
[3] = test system: 45 receptors, channels and transporters; experiment: Off-target binding at 45 receptors, channels and transporters (NIMH PDSP); details: at 10 μM
[4] = target: T1, H2 histamine receptor (Homo sapiens, UniProt P25021); experiment: Off-target binding, NIMH Psychoactive Drug Screening program; details: read-out: inhibition of binding at H2 histamine receptor
T1 construct: NIMH Psychoactive Drug Screening program

[5] = test system: middle-aged mice after MCAo; details: dose 3 mg/kg; four weeks after MCAo; vs Veh; listed as MRS 4719, 3 mg/kg
[6] = test system: mice, LAD ligation ischemia/reperfusion; experiment: Myocardial ischemia/reperfusion (LAD ligation), echocardiography; format: in vivo, mouse; details: 2 mg/kg/day s.c. minipump 3 days at reperfusion after 60 min LAD occlusion, 2 weeks or 4 weeks post-I/R, vs vehicle
[7] = target: T2, D3 dopamine receptor (Homo sapiens, UniProt P35462); experiment: Off-target binding, NIMH Psychoactive Drug Screening program; details: read-out: inhibition of binding at D3 dopamine receptor
T2 construct: NIMH Psychoactive Drug Screening program

[8] = test system: mouse; details: cited from earlier work
[9] = target: T3, mP2X4R (Mus musculus, UniProt Q9JJX6); details: compared with hP2X4R; cited from earlier work
T3 sequence (Q9JJX6 1-388): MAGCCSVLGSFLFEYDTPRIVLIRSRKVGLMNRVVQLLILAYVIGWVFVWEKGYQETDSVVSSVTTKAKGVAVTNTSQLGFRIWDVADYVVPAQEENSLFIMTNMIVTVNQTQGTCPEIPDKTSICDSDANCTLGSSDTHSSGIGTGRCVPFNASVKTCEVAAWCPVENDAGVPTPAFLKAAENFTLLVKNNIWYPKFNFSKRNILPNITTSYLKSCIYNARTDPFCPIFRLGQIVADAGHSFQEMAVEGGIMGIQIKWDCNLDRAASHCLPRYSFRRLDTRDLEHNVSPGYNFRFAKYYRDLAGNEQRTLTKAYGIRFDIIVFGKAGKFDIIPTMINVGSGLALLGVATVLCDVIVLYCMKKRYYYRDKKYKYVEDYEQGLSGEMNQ

[10] = target: T4, hP2X4R (Homo sapiens, UniProt Q99571); experiment: cell-based; format: cell-based
T4 construct: expressed in transfected cells; host or cells: HEK-293
T4 sequence (Q99571 1-388): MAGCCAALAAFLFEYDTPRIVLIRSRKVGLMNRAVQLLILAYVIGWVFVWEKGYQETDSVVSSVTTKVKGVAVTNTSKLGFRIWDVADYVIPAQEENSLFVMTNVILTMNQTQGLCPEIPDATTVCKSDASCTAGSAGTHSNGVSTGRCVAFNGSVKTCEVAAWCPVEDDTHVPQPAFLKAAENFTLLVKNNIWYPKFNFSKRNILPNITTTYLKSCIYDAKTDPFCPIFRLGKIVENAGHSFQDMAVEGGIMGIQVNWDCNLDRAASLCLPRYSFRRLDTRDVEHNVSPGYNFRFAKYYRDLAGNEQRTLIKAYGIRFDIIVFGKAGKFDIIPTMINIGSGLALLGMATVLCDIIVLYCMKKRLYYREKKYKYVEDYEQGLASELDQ

[11] = target: T5, hP2X3R (Homo sapiens, UniProt P56373); experiment: cell-based; format: cell-based
T5 construct: expressed in transfected cells; host or cells: CHO-K1
T5 sequence (P56373 1-397): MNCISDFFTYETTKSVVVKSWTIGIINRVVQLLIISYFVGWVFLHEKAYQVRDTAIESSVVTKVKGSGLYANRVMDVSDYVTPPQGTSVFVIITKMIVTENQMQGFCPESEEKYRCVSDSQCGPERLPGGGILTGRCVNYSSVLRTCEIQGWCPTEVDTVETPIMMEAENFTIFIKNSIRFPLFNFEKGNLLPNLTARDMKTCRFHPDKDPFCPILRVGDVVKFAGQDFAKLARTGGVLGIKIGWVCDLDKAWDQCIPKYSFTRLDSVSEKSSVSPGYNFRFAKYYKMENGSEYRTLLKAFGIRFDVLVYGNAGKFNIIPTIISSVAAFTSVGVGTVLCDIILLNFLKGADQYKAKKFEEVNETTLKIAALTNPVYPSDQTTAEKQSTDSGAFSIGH

[12] = target: T6, hP2X2/3R (Homo sapiens, UniProt P56373+Q9UBL9); experiment: cell-based; format: cell-based
T6 construct: expressed in transfected cells; host or cells: CHO-K1
T6 sequence (Q9UBL9 1-471): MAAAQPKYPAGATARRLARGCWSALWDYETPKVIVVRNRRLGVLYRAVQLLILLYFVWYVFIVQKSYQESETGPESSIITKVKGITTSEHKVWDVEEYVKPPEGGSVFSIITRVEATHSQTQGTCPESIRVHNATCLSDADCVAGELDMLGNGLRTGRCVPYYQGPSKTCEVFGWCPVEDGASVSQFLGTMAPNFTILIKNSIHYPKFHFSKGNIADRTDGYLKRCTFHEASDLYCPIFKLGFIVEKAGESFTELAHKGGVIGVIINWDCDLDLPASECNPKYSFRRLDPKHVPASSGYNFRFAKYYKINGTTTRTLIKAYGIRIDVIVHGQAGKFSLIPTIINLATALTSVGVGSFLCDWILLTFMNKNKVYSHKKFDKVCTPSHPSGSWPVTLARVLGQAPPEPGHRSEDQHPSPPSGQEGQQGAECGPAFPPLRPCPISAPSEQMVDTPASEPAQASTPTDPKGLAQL
T6 sequence (P56373 1-397): T5 sequence (P56373 1-397)

[13] = target: T7, hP2X1R (Homo sapiens, UniProt P51575); experiment: cell-based
T7 construct: expressed in transfected cells; host or cells: CHO-K1
T7 sequence (P51575 1-399): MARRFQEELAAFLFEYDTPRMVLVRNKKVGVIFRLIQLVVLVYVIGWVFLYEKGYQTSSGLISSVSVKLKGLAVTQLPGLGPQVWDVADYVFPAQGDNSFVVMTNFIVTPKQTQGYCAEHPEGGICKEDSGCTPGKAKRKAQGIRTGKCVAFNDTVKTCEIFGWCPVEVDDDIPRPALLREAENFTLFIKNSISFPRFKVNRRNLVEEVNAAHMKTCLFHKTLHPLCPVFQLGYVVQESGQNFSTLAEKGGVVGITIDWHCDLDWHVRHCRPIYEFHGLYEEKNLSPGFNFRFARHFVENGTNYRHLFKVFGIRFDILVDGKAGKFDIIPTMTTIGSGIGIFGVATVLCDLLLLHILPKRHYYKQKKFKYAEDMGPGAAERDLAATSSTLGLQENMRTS

T1 sequence (P25021 whole entry): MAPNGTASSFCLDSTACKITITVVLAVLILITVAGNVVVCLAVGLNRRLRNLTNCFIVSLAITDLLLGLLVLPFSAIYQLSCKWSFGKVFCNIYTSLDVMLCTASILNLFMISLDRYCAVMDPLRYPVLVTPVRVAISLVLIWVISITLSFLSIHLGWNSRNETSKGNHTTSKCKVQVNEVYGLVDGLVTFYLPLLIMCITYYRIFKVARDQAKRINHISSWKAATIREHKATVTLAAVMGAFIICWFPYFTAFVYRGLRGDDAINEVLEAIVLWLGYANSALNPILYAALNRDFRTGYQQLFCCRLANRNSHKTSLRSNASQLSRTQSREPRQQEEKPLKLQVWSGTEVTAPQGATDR
T2 sequence (P35462 whole entry): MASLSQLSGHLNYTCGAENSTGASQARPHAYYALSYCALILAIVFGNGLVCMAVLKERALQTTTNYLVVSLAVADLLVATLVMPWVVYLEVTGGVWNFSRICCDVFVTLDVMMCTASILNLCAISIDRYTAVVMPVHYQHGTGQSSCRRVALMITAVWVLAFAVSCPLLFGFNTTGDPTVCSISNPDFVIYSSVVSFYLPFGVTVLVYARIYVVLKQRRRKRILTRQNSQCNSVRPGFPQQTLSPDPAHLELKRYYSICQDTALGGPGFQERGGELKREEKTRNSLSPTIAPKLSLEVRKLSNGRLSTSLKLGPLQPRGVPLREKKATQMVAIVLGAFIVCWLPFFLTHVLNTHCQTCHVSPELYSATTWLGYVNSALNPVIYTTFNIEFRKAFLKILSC

O=C1CN=C(c2cccc(Br)c2)c2oc3ccccc3c2N1 [Compound 5-BDBD, 5-(3-bromophenyl)-1,3-dihydro-2H-benzofuro[3,2-e]-1,4-diazepin-2-one]
stroke infarct size [1]: reduced stroke infarct size

Cc1ccc2c3c(ccc2c1)N(c1cccc(-c2noc(=S)[nH]2)c1)C(=O)CC(=O)N3 [Compound 21c, 9-Methyl-5-(3-(5-thioxo-4,5-dihydro-1,2,4-oxadiazol-3-yl)phenyl)-1,5-dihydro-2H-naphtho[1,2-b][1,4]diazepine-2,4(3H)-dione]
cortical infarct volume alone ([2]; 5 mg/kg/day): not statistically significant
striatal infarct volume alone ([2]; 5 mg/kg/day): not statistically significant
total hemispheric infarct volume ([2]; 5 mg/kg/day): moderate but significant decrease; also recorded: reduced total hemispheric infarct volume
off-target interactions at 45 receptors, channels and transporters [3]: no significant interactions

O=C1CC(=O)N(c2cccc(-c3noc(=S)[nH]3)c2)c2cc(Br)c3ccccc3c2N1 [Compound 21d, 7-Bromo-5-(3-(5-thioxo-4,5-dihydro-1,2,4-oxadiazol-3-yl)phenyl)-1,5-dihydro-2H-naphtho[1,2-b][1,4]diazepine-2,4(3H)-dione triethylamine salt]
off-target interactions at 45 receptors, channels and transporters [3]: no significant interactions

O=C1CC(=O)N(c2ccnc(-c3noc(=S)[nH]3)c2)c2ccc3ccccc3c2N1 [Compound 21u, 5-(2-(5-Thioxo-4,5-dihydro-1,2,4-oxadiazol-3-yl)pyridin-4-yl)-1,5-dihydro-2H-naphtho[1,2-b][1,4]diazepine-2,4(3H)-dione triethylamine salt]
inhibition at 10 µM [4]: 89 ± 4%
cortical infarct volume [2]: significantly reduced
striatal infarct volume [2]: no statistically significant decrease
total hemispheric infarct volume [2]: significantly reduced
neuroprotection based on total hemispheric infarct volume size ([2]; 3 mg/kg): significant neuroprotection
learning and memory, NORT [5]: significant retention of memory; also recorded: reached to statistical significance
decline in fractional shortening (FS) ([6]; listed as MRS 4719): less than those in vehicle-treated mice
decline in left ventricular ejection fraction (EF) ([6]; listed as MRS 4719): less than those in vehicle-treated mice
decline in fractional shortening (FS) ([6]; listed as MRS4719): lesser degree of decline
decline in left ventricular ejection fraction (EF) ([6]; listed as MRS4719): lesser degree of decline
inhibition at 10 µM [7]: 74 ± 10%

O=C1CC(=O)N(c2cccc(-c3noc(=S)[nH]3)c2)c2ccc3ccccc3c2N1.[Na] [Compound 22a, 5-(3-(5-Thioxo-4,5-dihydro-1,2,4-oxadiazol-3-yl)phenyl)-1,5-dihydro-2H-naphtho[1,2-b][1,4]diazepine-2,4(3H)-dione sodium salt]
in vivo efficacy in the mouse [8]: considerable in vivo efficacy
potency in blocking mP2X4R effects in vitro [9]: as potent in blocking mP2X4R effects in vitro as at hP2X4R
off-target interactions at 45 receptors, channels and transporters [3]: no significant interactions

CCN(CC)CC.O=C1CC(=O)N(c2cccc(-c3noc(=S)[nH]3)c2)c2cc(-c3ccccc3)c3ccccc3c2N1 [Compound 211, 7-Phenyl-5-(3-(5-thioxo-4,5-dihydro-1,2,4-oxadiazol-3-yl)phenyl)-1,5-dihydro-2H-naphtho[1,2-b][1,4]diazepine-2,4(3H)-dione triethylamine salt]
IC50 [10]: 20.7 µM
hP2X3R % inhib. [11]: 11%
hP2X2/3R % inhib. [12]: 10%
hP2X1R % inhib. [13]: 14%
